Molecular target: DGKα (Homo sapiens (Human), UniProt P23743)
Experiment: Human DGKα kinase activity inhibition assay (ADP-Glo)
Assay type: biochemical
Conditions: recombinant full-length human DGKα, 55 μM ATP, 7 μM 1,2-dioleoyl-sn-glycerol, read-out: IC50 values of examples in in vitro human DGKa kinase activity inhibition assays
Method in brief: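 Recombinant full-length human DGKα (C-terminal FLAG, from insect cells) phosphorylated 1,2-dioleoyl-sn-glycerol presented in octyl-glucopyranoside micelles. ADP formed was quantified by ADP-Glo luminescence. Compounds were added from 100-fold DMSO stocks.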

DGKα, sequence (P23743 other isoform, or with tags, fused parts or gaps): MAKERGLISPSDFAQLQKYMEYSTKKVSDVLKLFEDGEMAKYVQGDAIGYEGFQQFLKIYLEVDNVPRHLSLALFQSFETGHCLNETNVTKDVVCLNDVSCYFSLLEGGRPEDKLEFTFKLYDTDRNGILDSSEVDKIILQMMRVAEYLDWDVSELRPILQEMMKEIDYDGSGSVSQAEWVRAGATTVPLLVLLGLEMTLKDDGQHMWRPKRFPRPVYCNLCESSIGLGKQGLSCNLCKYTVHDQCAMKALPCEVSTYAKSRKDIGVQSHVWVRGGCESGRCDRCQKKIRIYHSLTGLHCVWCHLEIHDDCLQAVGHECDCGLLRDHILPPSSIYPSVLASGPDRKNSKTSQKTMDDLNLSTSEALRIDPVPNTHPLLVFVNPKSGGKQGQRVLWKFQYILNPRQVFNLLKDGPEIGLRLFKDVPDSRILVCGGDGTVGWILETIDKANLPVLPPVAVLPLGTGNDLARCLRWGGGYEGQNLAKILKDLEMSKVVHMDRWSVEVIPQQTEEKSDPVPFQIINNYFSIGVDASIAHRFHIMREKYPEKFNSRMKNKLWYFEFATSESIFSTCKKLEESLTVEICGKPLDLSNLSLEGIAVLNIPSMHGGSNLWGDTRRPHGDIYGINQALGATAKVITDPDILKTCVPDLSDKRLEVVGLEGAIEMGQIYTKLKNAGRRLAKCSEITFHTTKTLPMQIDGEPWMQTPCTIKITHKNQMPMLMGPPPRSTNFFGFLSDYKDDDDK

SMILES | IC50 [nM]
Cc1ccc2c(c1)c(N1CCC(c3nc4ccc(Cl)cc4o3)CC1)c(C(N)=O)c(=O)n2C [Example 202, 4-[4-(6-chloro-1,3-benzoxazol-2-yl)piperidin-1-yl]-1,6-dimethyl-2-oxo-1,2-dihydroquinoline-3-carboxamide] | 2.7
Cn1c(=O)c(C(N)=O)c(N2CCC(c3nc4ccccc4o3)CC2)c2ccc(F)cc21 [Example 305, 4-[4-(1,3-benzoxazol-2-yl)piperidin-1-yl]-7-fluoro-1-methyl-2-oxo-1,2-dihydroquinoline-3-carboxamide] | 4.5
Cn1c(=O)c(C#N)c(N2CCC(c3nc4cc(Cl)ccc4o3)CC2)c2ccccc21 [Example 11, 4-[4-(5-chloro-1,3-benzoxazol-2-yl)piperidin-1-yl]-1-methyl-2-oxo-1,2-dihydroquinoline-3-carbonitrile] | 3.8
Cc1ccc2oc(C3(C)CCN(c4c(C#N)c(=O)n(C)c5cc(N6C[C@H](O)CC6=O)ccc45)CC3)nc2c1 [Example 269, 7-[(4R)-4-hydroxy-2-oxopyrrolidin-1-yl]-1-methyl-4-[4-methyl-4-(5-methyl-1,3-benzoxazol-2-yl)piperidin-1-yl]-2-oxo-1,2-dihydroquinoline-3-carbonitrile] | 71
Cc1ccc2c(c1)c(N1CCC(c3nc4cc(Cl)ccc4o3)CC1)c(C(N)=O)c(=O)n2C [Example 201, 4-[4-(5-chloro-1,3-benzoxazol-2-yl)piperidin-1-yl]-1,6-dimethyl-2-oxo-1,2-dihydroquinoline-3-carboxamide] | 1.1
Cn1c(=O)c(C#N)c(N2CCC(C)(c3cc4ccccc4s3)CC2)c2ccccc21 [Example 342, 4-[4-(1-benzothiophen-2-yl)-4-methylpiperidin-1-yl]-1-methyl-2-oxo-1,2-dihydroquinoline-3-carbonitrile] | 2.9
Cc1cccc(-c2nnc(C3CCN(c4c(C#N)c(=O)n(C)c5ccc(Br)cc45)CC3)o2)c1 [Example 443, 6-bromo-1-methyl-4-{4-[5-(3-methylphenyl)-1,3,4-oxadiazol-2-yl]piperidin-1-yl}-2-oxo-1,2-dihydroquinoline-3-carbonitrile] | 9.1
Cn1c(=O)c(C(N)=O)c(N2CCC(c3ccn(-c4cccc(Cl)c4)n3)CC2)c2ccccc21 [Example 474, 4-{4-[1-(3-chlorophenyl)-1H-pyrazol-3-yl]piperidin-1-yl}-1-methyl-2-oxo-1,2-dihydroquinoline-3-carboxamide] | 4.6
Cc1ccc(-c2csc(C3CCN(c4c(C#N)c(=O)n(C)c5ccccc45)CC3)n2)cc1 [Example 374, 1-methyl-4-{4-[4-(4-methylphenyl)-1,3-thiazol-2-yl]piperidin-1-yl}-2-oxo-1,2-dihydroquinoline-3-carbonitrile] | 34
Cc1ccc2oc(C3CCN(c4c(C#N)c(=O)n(C)c5cc(OC6CCOC6)ccc45)CC3)nc2c1 (single isomer, unassigned) [Example 380, 1-methyl-4-[4-(5-methyl-1,3-benzoxazol-2-yl)piperidin-1-yl]-2-oxo-7-[(oxolan-3-yl)oxy]-1,2-dihydroquinoline-3-carbonitrile] | 0.4
Cc1ccc2oc(C3(C)CCN(c4c(C#N)c(=O)n(C)c5cc(F)ccc45)CC3)nc2c1 [Example 237, 7-fluoro-1-methyl-4-[4-methyl-4-(5-methyl-1,3-benzoxazol-2-yl)piperidin-1-yl]-2-oxo-1,2-dihydroquinoline-3-carbonitrile] | 5
Cc1ccc2oc(C3CCN(c4c(C(N)=O)c(=O)n(C)c5ccc(C6CCC6)cc45)CC3)nc2c1 [Example 506, 6-cyclobutyl-1-methyl-4-[4-(5-methyl-1,3-benzoxazol-2-yl)piperidin-1-yl]-2-oxo-1,2-dihydroquinoline-3-carboxamide] | 574
COCc1ccc2nc(C3(C)CCN(c4c(C(N)=O)c(=O)n(C)c5ccccc45)CC3)oc2c1 [Example 491, 4-{4-[6-(methoxymethyl)-1,3-benzoxazol-2-yl]-4-methylpiperidin-1-yl}-1-methyl-2-oxo-1,2-dihydroquinoline-3-carboxamide] | 9.1
Cn1c(=O)c(C(N)=O)c(N2CCC(c3nc(-c4cccnc4)no3)CC2)c2ccccc21 [Example 475, 1-methyl-2-oxo-4-{4-[3-(pyridin-3-yl)-1,2,4-oxadiazol-5-yl]piperidin-1-yl}-1,2-dihydroquinoline-3-carboxamide] | 224
Cc1ccc2oc(C3CCN(c4c(C#N)c(=O)n(C)c5ccc(C)cc45)CC3)nc2c1 [Example 166, 1,6-dimethyl-4-[4-(5-methyl-1,3-benzoxazol-2-yl)piperidin-1-yl]-2-oxo-1,2-dihydroquinoline-3-carbonitrile] | 2.2
Cc1ccccc1-c1nnc(C2CCN(c3c(C#N)c(=O)n(C)c4ccc(Br)cc34)CC2)o1 [Example 442, 6-bromo-1-methyl-4-{4-[5-(2-methylphenyl)-1,3,4-oxadiazol-2-yl]piperidin-1-yl}-2-oxo-1,2-dihydroquinoline-3-carbonitrile] | 15

SMILES | IC50 [nM]
Cc1cc(F)cc(C2CCN(c3c(C#N)c(=O)n(C)c4ccccc34)CC2)c1 [Example 51, 4-[4-(3-fluoro-5-methylphenyl)piperidin-1-yl]-1-methyl-2-oxo-1,2-dihydroquinoline-3-carbonitrile] | 8.3
Cc1ccc2oc(C3(C)CCN(c4c(C#N)c(=O)n(C)c5ccc(OC6COC6)cc45)CC3)nc2c1 [Example 267, 1-methyl-4-[4-methyl-4-(5-methyl-1,3-benzoxazol-2-yl)piperidin-1-yl]-6-[(oxetan-3-yl)oxy]-2-oxo-1,2-dihydroquinoline-3-carbonitrile] | 64
Cn1c(=O)c(C#N)c(N2CCC(c3cccc4scnc34)CC2)c2ccccc21 [Example 71, 4-[4-(1,3-benzothiazol-4-yl)piperidin-1-yl]-1-methyl-2-oxo-1,2-dihydroquinoline-3-carbonitrile] | 23
Cc1cccc(-n2ccc(C3CCN(c4c(C(N)=O)c(=O)n(C)c5ccccc45)CC3)n2)c1 [Example 472, 1-methyl-4-{4-[1-(3-methylphenyl)-1H-pyrazol-3-yl]piperidin-1-yl}-2-oxo-1,2-dihydroquinoline-3-carboxamide] | 6.7
COc1ccc2c(c1)c(N1CCC(c3nc4ccc(C)cc4o3)CC1)c(C#N)c(=O)n2C [Example 190, 6-methoxy-1-methyl-4-[4-(6-methyl-1,3-benzoxazol-2-yl)piperidin-1-yl]-2-oxo-1,2-dihydroquinoline-3-carbonitrile] | 5.7
COCCOc1ccc2c(N3CCC(c4nc5cc(C)ccc5o4)CC3)c(C#N)c(=O)n(C)c2c1 [Example 383, 7-(2-methoxyethoxy)-1-methyl-4-[4-(5-methyl-1,3-benzoxazol-2-yl)piperidin-1-yl]-2-oxo-1,2-dihydroquinoline-3-carbonitrile] | 5.1
COc1ccc2c(c1)c(N1CCC(c3nnc(-c4ccccc4)o3)CC1)c(C#N)c(=O)n2C [Example 439, 6-methoxy-1-methyl-2-oxo-4-[4-(5-phenyl-1,3,4-oxadiazol-2-yl)piperidin-1-yl]-1,2-dihydroquinoline-3-carbonitrile] | 492
Cn1c(=O)c(C(N)=O)c(N2CCC(C)(c3nc4ccccc4o3)CC2)c2ccc(Cl)cc21 [Example 297, 4-[4-(1,3-benzoxazol-2-yl)-4-methylpiperidin-1-yl]-7-chloro-1-methyl-2-oxo-1,2-dihydroquinoline-3-carboxamide] | 0.6
Cc1ccc2oc(C3(C)CCN(c4c(C#N)c(=O)n(C)c5ccccc45)CC3)nc2c1 [Example 288, 1-methyl-4-[4-methyl-4-(5-methyl-1,3-benzoxazol-2-yl)piperidin-1-yl]-2-oxo-1,2-dihydroquinoline-3-carbonitrile] | 3.8
Cn1c(=O)c(C#N)c(N2CCC(c3cnccn3)CC2)c2ccccc21 [Example 150, 1-methyl-2-oxo-4-[4-(pyrazin-2-yl)piperidin-1-yl]-1,2-dihydroquinoline-3-carbonitrile] | 1530
Cc1ccc2oc(C3CCN(c4c(C#N)c(=O)n(C)c5c(Cl)cccc45)CC3)nc2c1 [Example 232, 8-chloro-1-methyl-4-[4-(5-methyl-1,3-benzoxazol-2-yl)piperidin-1-yl]-2-oxo-1,2-dihydroquinoline-3-carbonitrile] | 163
COc1ccc2c(c1)c(N1CCC(c3nc(-c4cccc(C)c4)no3)CC1)c(C#N)c(=O)n2C [Example 436, 6-methoxy-1-methyl-4-{4-[3-(3-methylphenyl)-1,2,4-oxadiazol-5-yl]piperidin-1-yl}-2-oxo-1,2-dihydroquinoline-3-carbonitrile] | 32
Cc1ccc2oc(C3(C)CCN(c4c(C#N)c(=O)n(C)c5cc(NC6CC6)ccc45)CC3)nc2c1 [Example 418, 7-(cyclopropylamino)-1-methyl-4-[4-methyl-4-(5-methyl-1,3-benzoxazol-2-yl)piperidin-1-yl]-2-oxo-1,2-dihydroquinoline-3-carbonitrile] | 1.4
Cc1ccc2oc(C3CCN(c4c(C#N)c(=O)n(C)c5cc(C(F)(F)F)ccc45)CC3)nc2c1 [Example 289, 1-methyl-4-[4-(5-methyl-1,3-benzoxazol-2-yl)piperidin-1-yl]-2-oxo-7-(trifluoromethyl)-1,2-dihydroquinoline-3-carbonitrile] | 8.3
Cc1ccc2oc(C3CCN(c4c(C#N)c(=O)n(C)c5cc(Cl)ccc45)CC3)nc2c1 [Example 229, 7-chloro-1-methyl-4-[4-(5-methyl-1,3-benzoxazol-2-yl)piperidin-1-yl]-2-oxo-1,2-dihydroquinoline-3-carbonitrile] | 3
COc1ccc(C2CCN(c3c(C#N)c(=O)n(C)c4ccc(-c5ccccc5)cc34)CC2)cc1 [Example 181, 4-[4-(4-methoxyphenyl)piperidin-1-yl]-1-methyl-2-oxo-6-phenyl-1,2-dihydroquinoline-3-carbonitrile] | 150
